Several values for one entry are separate records, joined by “and”; a condition that tells them apart may be missing. Identical values can stand only once.
Tests used:
OVX rats [1] = experiment: Osteoporosis biomarkers determination in rat serum (ELISA); assay type: in vivo; details: OVX rats + S3-15, individual animals
Experimental: Change of rat osteoporosis biomarkers after treating with S3-15 were determined by enzyme-linked immunosorbent assay (ELISA). […] serum biomarkers including CTX-I (C-terminal telopeptide of type I collagen), OC(Osteocalcin), PINP (Procollagen I N-Terminal propeptide), and RANKL(Receptor activator of nuclear factor-κB ligand). Rat blood was collected from aortaventralis after anesthesia, and centrifuged in 14000 × g at 4 °C to get the serum samples. The protein contents of those biomarkers in serum samples were detected according to manufacturer’s instruction (CTX-I and OC, Systems IDS, UK; RANKL, R&D Systems, USA; PINP, USCN Life Science, Inc., China.).

C3H10T1/2 = C3H10T1/2 proliferation and osteoblastic mineralization; assay type: cell-based, mouse; details: C3H10T1/2 or human primary osteoblasts, osteogenic differentiation medium
Experimental: Supplementary Fig.5. In Vitro Activity Evaluation and Signal Pathway Study of compound S3-15. a Western blot of PI3K and AKT phosphorylation in RAW264.7 cells treating with or without S315 and sRANKL at different point-in-time. b EC50 curve and representative OC microphotographs of mature osteoclasts apoptosis assay with S3-15. n=3 biological replicates for each concentration. EC50 values were calculated by GraphPad Prism 8 software. c EC50 curve and representative OC microphotographs of mature osteoclasts apoptosis assay with S3, S3-03 and S3-05. n=3 biological replicates for each concentration. EC50 values were calculated by GraphPad Prism […]
pits in dose-dependent manner (mouse BMMs). e Precursor osteoblasts C3H10T12 proliferation-promoting of S3, S3-05 and S3-15. f Osteoblastic mineralization after treatment with S3, S3-05 and S3-15. C3H10T12 cells were cultured in osteoblast induction differentiation medium with or without treatment for 14 days and determinate of calcium deposition in differentiated osteoblasts by Alizarin red staining. Error bars represent ± s.d. n=3. Statistical difference was determined by unpaired two-tailed Student’s t test. Significant difference p value is < 0.05. Scale […]
(1 picture or pasted object on this page, not shown here)

OVX rats [2] = experiment: Osteoporosis therapeutic study in OVX rats (micro-CT); assay type: in vivo, rat
Experimental: Female SD rats or C57BL/6 mice were cared until they grown up to 6 months old or 10 weeks old, respectively. Then we subjected them to either bilateral ovariectomy or sham operation after anesthesia with 10% chloral hydrate (0.3 mL/100 g). Then all the rats or mice were intramuscular injected of penicillin to prevent infection in the first week of surgery. For rat experiments, after 12 weeks of operation, 3 rats from sham-operated or ovariectomized groups were random selected to determine bone mass by micro-CT imaging biopsy to verify successful produced bone loss(data unshown). Then the OVX rats were individually administrated with S3-15, S3, and S3-05 orally with (10 mg/kg/day) for another 12 weeks. For mouse experiments, after 4 weeks of surgery, the OVX mice were treated with 10 mg/kg/day S3-15 for another 4 weeks.
The weight of rats or mice were recorded every week in the treatment period. After treatment, the rats were harvested, the serum, heart, liver, spleen, lung, kidney, thymus, and femurs were all collected and subjected to subsequent analysis. The right femurs of rats or mice were cleaned excess soft tissue, fixed in 10% formalin, and processed them for microcomputed tomography (micro-CT) analysis. Left mice femurs were collected and excarnate for biomechanical strength testing. Mice peripheral blood were as well as collected for flow cytometry analyzing.
The right femurs of rats or mice were further analyzed with micro-CT on Inveon PET/CT (Siemens, Germany). We used micro-CT to scan the femur from the femoral head to the femoral condyle, using 19 μm resolution, 80 kV 500uA, 360 projection, 3000-6000 image threshold, full rotation cone beam. Three-dimensional reconstruction and histomorphometric analyses of trabecular bone were conducted with the IAW (Inveon analysis workstation) analysis software. The trabecular extended 1 mm (rat) or 0.5 mm (mice) proximally to the end of the distal growth plate over 2 mm (rats) or 1 mm (mice) toward the diaphysis was selected as the region of interest (ROI) for the analysis. The resulting two-dimensional images of trabecular bone in relative cross sections were shown in grayscale. Trabecular bone parameters were measured including bone volume/tissue volume (BV/TV), bone surface area/bone volume (BS/BV), trabecular number (Tb.N), trabecular thickness (Tb.Th), trabecular separation(Tb.Sp) and trabecular pattern factor(Tb.P.F).

RAW264.7 cells = experiment: In vitro cytotoxicity assay (MTT); assay type: cell-based, mouse
Procedure, shortened: (§1)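 Log-phase cells were seeded at 6 × 10^3 per well and incubated 24 h, with viability read by MTT. Growth inhibition (%) was calculated from OD relative to vehicle wells. CC50 came from nonlinear regression curve fitting.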

[3] = In vitro cytotoxicity assay (MTT); assay type: cell-based, mouse; details: mouse, RAW264.7 cells
Procedure, shortened: as §1

[4] = OVX rats, S3-15 oral 10 mg/kg/day 12 weeks, individual animals, 10 mg/kg/day

## CC(=O)/C(=N\Nc1ccccc1C(=O)O)C(=O)Nc1ccccn1 [S3-15]
OVX rats [1]
  CTX-I, serum: 19.469 pg/mL and 18.8316 pg/mL and 14.1264 pg/mL and 18.682 pg/mL and 15.0327 pg/mL and 20.1095 pg/mL and 19.8831 pg/mL and 22.3952 pg/mL and 19.2437 pg/mL
  Glu-OCN, serum: 17.0885 pg/mL and 18.9711 pg/mL and 13.9189 pg/mL and 19.8634 pg/mL and 15.7343 pg/mL and 15.8903 pg/mL and 20.547 pg/mL and 20.6523 pg/mL and 22.4466 pg/mL
  OCN, serum: 88.7207 pg/mL and 63.1562 pg/mL and 56.8431 pg/mL and 170.125 pg/mL and 130.12 pg/mL and 70.5071 pg/mL and 180.184 pg/mL and 178.468 pg/mL and 148.784 pg/mL
  PINP, serum: 11904.5 pg/mL and 9058.6 pg/mL and 6938.35 pg/mL and 7805.25 pg/mL and 15755.4 pg/mL and 15266.7 pg/mL and 4261.9 pg/mL and 14338.4 pg/mL and 6837.57 pg/mL
  RANKL, serum: 197.546 pg/mL and 226.636 pg/mL and 184.818 pg/mL and 228.454 pg/mL and 215.727 pg/mL and 223 pg/mL and 210.273 pg/mL
C3H10T1/2
  cell proliferation and mineralization: increase cell proliferation and mineralization
OVX rats [2]; OVX rats, S3-15 oral 10 mg/kg/day 12 weeks, distal femur, individual animals, 10 mg/kg/day
  BV/TV: 0.6788 and 0.422 and 0.4058 and 0.5401 and 0.3909 and 0.3235 and 0.4349 and 0.3705 and 0.4806
OVX rats [2]; [4]
  Tb.N: 6.402 1/mm and 4.855 1/mm and 5.594 1/mm and 4.923 1/mm and 3.924 1/mm and 4.525 1/mm and 4.231 1/mm and 4.365 1/mm and 4.683 1/mm
  Tb.Sp: 0.05016 mm and 0.1191 mm and 0.1062 mm and 0.09343 mm and 0.1553 mm and 0.1495 mm and 0.1335 mm and 0.1442 mm and 0.1109 mm
  Tb.Th: 0.05016 mm and 0.1191 mm and 0.1062 mm and 0.09343 mm and 0.1553 mm and 0.1495 mm and 0.1335 mm and 0.1442 mm and 0.1109 mm
OVX rats [2]; oral 10 mg/kg/day, 12 weeks, in words
  BV/TV of OVX rats: increased
RAW264.7 cells; conc. 0.08 μM
  cell viability relative to 0 μM (fig. S5e): 111.614 and 102.001
RAW264.7 cells; conc. 0.28 μM
  cell viability relative to 0 μM (fig. S5e): 101.596 and 120.838 and 143.415
RAW264.7 cells; conc. 0.92 μM
  cell viability relative to 0 μM (fig. S5e): 144.954 and 160.091 and 138.541
RAW264.7 cells; conc. 3.03 μM
  cell viability relative to 0 μM (fig. S5e): 169.327 and 148.033 and 125.969
RAW264.7 cells; conc. 10 μM
  cell viability relative to 0 μM (fig. S5e): 154.703 and 140.336
[3]; conc. 0.08 μM, read-out: cell viability relative to 0 μM (fig. S5e)
  viability at 24 h, 0.08 μM: 107%
[3]; conc. 10 μM, read-out: cell viability relative to 0 μM (fig. S5e)
  viability at 24 h, 10 μM: 137%
[3]; RAW264.7, MTT
  CC50 at 24 h: 62.5 µM

Reference: paper PMC9468151, “Identification of a binding site on soluble RANKL that can be targeted to inhibit soluble RANK-RANKL interactions and treat osteoporosis” (Nature Communications, 2022)
